Columns and labels:
Type in all cases: in vivo
[1] = tested on: Alopecurus myosuroides (ALOMY); assay: Pre-emergence herbicidal glasshouse test on Alopecurus myosuroides; conditions: pre-emergence; 1000 g/h; evaluated after 13 days
In short: (§1)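 Steps: sow seeds in standard soil; cultivate 1 d (pre-) or 8 d (post-emergence) at 24/16 °C, 14 h light, 65% humidity; spray 1000 g/h in acetone/water plus Tween 20; grow on, watering twice daily; score percentage damage after 13 d.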

[2] = tested on: Setaria faberi (SETFA); assay: Pre-emergence herbicidal glasshouse test on Setaria faberi; conditions: pre-emergence; 1000 g/h; evaluated after 13 days
In short: as §1

[3] = tested on: Echinochloa crus-galli (ECHCG); assay: Pre-emergence herbicidal glasshouse test on Echinochloa crus-galli; conditions: pre-emergence; 1000 g/h; evaluated after 13 days
In short: as §1

[4] = tested on: Solanum nigrum (SOLNI); assay: Pre-emergence herbicidal glasshouse test on Solanum nigrum; conditions: pre-emergence; 1000 g/h; evaluated after 13 days
In short: as §1

[5] = tested on: Amaranthus retoflexus (AMARE); assay: Pre-emergence herbicidal glasshouse test on Amaranthus retoflexus; conditions: pre-emergence; 1000 g/h; evaluated after 13 days
In short: as §1

[6] = tested on: Ipomoea hederacea (IPOHE); assay: Pre-emergence herbicidal glasshouse test on Ipomoea hederacea; conditions: pre-emergence; 1000 g/h; evaluated after 13 days
In short: as §1

[7] = tested on: Alopecurus myosuroides (ALOMY); assay: Post-emergence herbicidal glasshouse test on Alopecurus myosuroides; conditions: post-emergence; 1000 g/h; evaluated after 13 days
In short: as §1

[8] = tested on: Setaria faberi (SETFA); assay: Post-emergence herbicidal glasshouse test on Setaria faberi; conditions: post-emergence; 1000 g/h; evaluated after 13 days
In short: as §1

[9] = tested on: Echinochloa crus-galli (ECHCG); assay: Post-emergence herbicidal glasshouse test on Echinochloa crus-galli; conditions: post-emergence; 1000 g/h; evaluated after 13 days
In short: as §1

[10] = tested on: Solanum nigrum (SOLNI); assay: Post-emergence herbicidal glasshouse test on Solanum nigrum; conditions: post-emergence; 1000 g/h; evaluated after 13 days
In short: as §1

[11] = tested on: Amaranthus retoflexus (AMARE); assay: Post-emergence herbicidal glasshouse test on Amaranthus retoflexus; conditions: post-emergence; 1000 g/h; evaluated after 13 days
In short: as §1

[12] = tested on: Ipomoea hederacea (IPOHE); assay: Post-emergence herbicidal glasshouse test on Ipomoea hederacea; conditions: post-emergence; 1000 g/h; evaluated after 13 days
In short: as §1

Cn1ncc(-c2ccc(C(F)(F)F)nc2S(C)(=O)=O)c(O)c1=O [Compound 4.003]
PRE Application ALOMY herbicidal damage (five point scale) [1]: 5 (5=80-100% damage) | PRE Application SETFA herbicidal damage (five point scale) [2]: 5 (5=80-100% damage) | PRE Application ECHCG herbicidal damage (five point scale) [3]: 5 (5=80-100% damage) | PRE Application SOLNI herbicidal damage (five point scale) [4]: 5 (5=80-100% damage) | PRE Application AMARE herbicidal damage (five point scale) [5]: 5 (5=80-100% damage) | PRE Application IPOHE herbicidal damage (five point scale) [6]: 5 (5=80-100% damage) | POST Application ALOMY herbicidal damage (five point scale) [7]: 5 (5=80-100% damage) | POST Application SETFA herbicidal damage (five point scale) [8]: 5 (5=80-100% damage) | POST Application ECHCG herbicidal damage (five point scale) [9]: 5 (5=80-100% damage) | POST Application SOLNI herbicidal damage (five point scale) [10]: 5 (5=80-100% damage) | POST Application AMARE herbicidal damage (five point scale) [11]: 5 (5=80-100% damage) | POST Application IPOHE herbicidal damage (five point scale) [12]: 5 (5=80-100% damage)

COc1nc(C(F)(F)F)ccc1-c1cnn(C)c(=O)c1O [Compound 4.005]
PRE Application ALOMY herbicidal damage (five point scale) [1]: 1 (1=0-19% damage) | PRE Application SETFA herbicidal damage (five point scale) [2]: 1 (1=0-19% damage) | PRE Application ECHCG herbicidal damage (five point scale) [3]: 1 (1=0-19% damage) | PRE Application SOLNI herbicidal damage (five point scale) [4]: 1 (1=0-19% damage) | PRE Application AMARE herbicidal damage (five point scale) [5]: 5 (5=80-100% damage) | PRE Application IPOHE herbicidal damage (five point scale) [6]: 1 (1=0-19% damage) | POST Application ALOMY herbicidal damage (five point scale) [7]: 1 (1=0-19% damage) | POST Application SETFA herbicidal damage (five point scale) [8]: 1 (1=0-19% damage) | POST Application ECHCG herbicidal damage (five point scale) [9]: 1 (1=0-19% damage) | POST Application SOLNI herbicidal damage (five point scale) [10]: 3 (3=40-59% damage) | POST Application AMARE herbicidal damage (five point scale) [11]: 5 (5=80-100% damage) | POST Application IPOHE herbicidal damage (five point scale) [12]: 2 (2=20-39% damage)

Cn1ncc(-c2ccc(C(F)(F)F)nc2O)c(O)c1=O [Compound 4.006]
PRE Application ALOMY herbicidal damage (five point scale) [1]: 1 (1=0-19% damage) | PRE Application SETFA herbicidal damage (five point scale) [2]: 1 (1=0-19% damage) | PRE Application ECHCG herbicidal damage (five point scale) [3]: 1 (1=0-19% damage) | PRE Application SOLNI herbicidal damage (five point scale) [4]: 1 (1=0-19% damage) | PRE Application AMARE herbicidal damage (five point scale) [5]: 1 (1=0-19% damage) | PRE Application IPOHE herbicidal damage (five point scale) [6]: 1 (1=0-19% damage) | POST Application ALOMY herbicidal damage (five point scale) [7]: 1 (1=0-19% damage) | POST Application SETFA herbicidal damage (five point scale) [8]: 1 (1=0-19% damage) | POST Application ECHCG herbicidal damage (five point scale) [9]: 1 (1=0-19% damage) | POST Application SOLNI herbicidal damage (five point scale) [10]: 4 (4=60-79% damage) | POST Application AMARE herbicidal damage (five point scale) [11]: 3 (3=40-59% damage) | POST Application IPOHE herbicidal damage (five point scale) [12]: 2 (2=20-39% damage)

Cn1ncc(-c2ccc(C(F)(F)F)nc2Oc2ccccc2)c(O)c1=O [Compound 4.008]
PRE Application ALOMY herbicidal damage (five point scale) [1]: 1 (1=0-19% damage) | PRE Application SETFA herbicidal damage (five point scale) [2]: 1 (1=0-19% damage) | PRE Application ECHCG herbicidal damage (five point scale) [3]: 1 (1=0-19% damage) | PRE Application SOLNI herbicidal damage (five point scale) [4]: 1 (1=0-19% damage) | PRE Application AMARE herbicidal damage (five point scale) [5]: 5 (5=80-100% damage) | PRE Application IPOHE herbicidal damage (five point scale) [6]: 1 (1=0-19% damage) | POST Application ALOMY herbicidal damage (five point scale) [7]: 1 (1=0-19% damage) | POST Application SETFA herbicidal damage (five point scale) [8]: 2 (2=20-39% damage) | POST Application ECHCG herbicidal damage (five point scale) [9]: 2 (2=20-39% damage) | POST Application SOLNI herbicidal damage (five point scale) [10]: 5 (5=80-100% damage) | POST Application AMARE herbicidal damage (five point scale) [11]: 5 (5=80-100% damage) | POST Application IPOHE herbicidal damage (five point scale) [12]: 4 (4=60-79% damage)

Cn1ncc(-c2ccc(C(F)(F)F)nc2OCc2cccc(Cl)c2)c(O)c1=O [Compound 4.009]
PRE Application ALOMY herbicidal damage (five point scale) [1]: 1 (1=0-19% damage) | PRE Application SETFA herbicidal damage (five point scale) [2]: 1 (1=0-19% damage) | PRE Application ECHCG herbicidal damage (five point scale) [3]: 1 (1=0-19% damage) | PRE Application SOLNI herbicidal damage (five point scale) [4]: 1 (1=0-19% damage) | PRE Application AMARE herbicidal damage (five point scale) [5]: 3 (3=40-59% damage) | PRE Application IPOHE herbicidal damage (five point scale) [6]: 1 (1=0-19% damage) | POST Application ALOMY herbicidal damage (five point scale) [7]: 1 (1=0-19% damage) | POST Application SETFA herbicidal damage (five point scale) [8]: 1 (1=0-19% damage) | POST Application ECHCG herbicidal damage (five point scale) [9]: 1 (1=0-19% damage) | POST Application SOLNI herbicidal damage (five point scale) [10]: 5 (5=80-100% damage) | POST Application AMARE herbicidal damage (five point scale) [11]: 4 (4=60-79% damage) | POST Application IPOHE herbicidal damage (five point scale) [12]: 1 (1=0-19% damage)

— US9693556B2, “Herbicidal pyridazinone derivatives” (SYNGENTA LIMITED, priority 2011, dated 2017)
